Tests used:
[1] = biological target: T1, unphosphorylated Myo5 (actoMyo5) (Saccharomyces cerevisiae, UniProt Q04439); assay: stopped-flow light scattering, ADP release from ADP-saturated actoMyo5 mixed with ATP; assay type: binding; design: motor domain plus both IQ motifs, truncated at Gly763, C-terminal AviTag-TEV-His9 kept; co-expressed with She4 in S. cerevisiae D1074; lambda phosphatase-treated (unphosphorylated at TEDS site S357); Cmd1 light chain in excess; with Calmodulin; Actin, alpha skeletal muscle (rabbit, Oryctolagus cuniculus); conditions: ADP dissociation rate constant, 100 µM ADP preincubated with 200 nM actoMyo5, then 2.5 mM ATP, KMg25 buffer pH 7, 20°C
T1 sequence (Q04439 whole entry, looked up, the tested form may be a part): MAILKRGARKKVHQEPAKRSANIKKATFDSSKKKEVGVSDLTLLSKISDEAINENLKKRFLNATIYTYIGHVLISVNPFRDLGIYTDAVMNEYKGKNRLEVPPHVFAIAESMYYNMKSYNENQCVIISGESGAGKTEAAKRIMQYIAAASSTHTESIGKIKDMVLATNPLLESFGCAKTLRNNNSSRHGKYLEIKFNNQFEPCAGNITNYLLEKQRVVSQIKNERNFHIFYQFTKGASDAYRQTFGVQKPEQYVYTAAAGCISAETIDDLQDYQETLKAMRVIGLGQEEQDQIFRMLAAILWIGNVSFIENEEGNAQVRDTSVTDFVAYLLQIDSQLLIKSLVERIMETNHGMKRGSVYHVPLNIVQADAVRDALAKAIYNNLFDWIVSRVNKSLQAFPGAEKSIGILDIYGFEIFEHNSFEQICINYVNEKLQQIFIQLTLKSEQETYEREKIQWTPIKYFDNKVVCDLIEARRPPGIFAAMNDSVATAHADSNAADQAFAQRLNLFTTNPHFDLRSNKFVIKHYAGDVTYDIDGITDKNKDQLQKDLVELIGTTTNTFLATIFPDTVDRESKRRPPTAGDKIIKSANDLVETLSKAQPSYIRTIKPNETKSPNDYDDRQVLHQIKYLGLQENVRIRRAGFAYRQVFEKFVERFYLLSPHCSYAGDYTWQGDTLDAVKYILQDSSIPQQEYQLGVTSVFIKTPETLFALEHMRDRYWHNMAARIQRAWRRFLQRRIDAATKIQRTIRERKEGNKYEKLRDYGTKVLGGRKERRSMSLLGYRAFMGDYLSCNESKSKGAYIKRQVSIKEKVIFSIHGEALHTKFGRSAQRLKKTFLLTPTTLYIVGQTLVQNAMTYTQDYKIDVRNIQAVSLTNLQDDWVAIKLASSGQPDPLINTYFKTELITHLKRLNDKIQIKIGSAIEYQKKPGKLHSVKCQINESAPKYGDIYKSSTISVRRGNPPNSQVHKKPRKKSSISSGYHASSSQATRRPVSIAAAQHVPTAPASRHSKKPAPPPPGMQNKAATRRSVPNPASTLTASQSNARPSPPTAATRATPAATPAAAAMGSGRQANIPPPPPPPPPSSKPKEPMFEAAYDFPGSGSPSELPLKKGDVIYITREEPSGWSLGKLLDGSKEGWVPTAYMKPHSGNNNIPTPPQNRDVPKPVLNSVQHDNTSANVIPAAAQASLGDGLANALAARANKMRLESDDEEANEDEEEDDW
Description: stopped-flow light scattering, ADP release from ADP-saturated actoMyo5 mixed with ATP on unphosphorylated Myo5 (actoMyo5)

[2] = biological target: T2, phosphorylated Myo5 (actoMyo5) (Saccharomyces cerevisiae, UniProt Q04439); assay: as above; assay type: binding; design: motor domain plus both IQ motifs, truncated at Gly763, C-terminal AviTag-TEV-His9 kept; co-expressed with She4 in S. cerevisiae D1074; phosphorylated at TEDS site S357 by Pak1; Cmd1 light chain in excess; with Calmodulin; Actin, alpha skeletal muscle (rabbit, Oryctolagus cuniculus); conditions: 100 µM ADP preincubated with 200 nM actoMyo5, then 2.5 mM ATP, KMg25 buffer pH 7, 20°C, phosphorylated at S357
T2 sequence (Q04439 whole entry, looked up, the tested form may be a part): as above
Description: stopped-flow light scattering, ADP release from ADP-saturated actoMyo5 mixed with ATP on phosphorylated Myo5 (actoMyo5)

[3] = biological target: T2, phosphorylated Myo5 (actoMyo5); conditions: apparent second-order rate constant of ATP binding to nucleotide-free actoMyo5 (actin-bound); MgATP, KMg25 buffer pH 7, 20°C; phosphorylated at S357
Description: stopped-flow light scattering, ATP-induced dissociation of actoMyo5, linear fit on phosphorylated Myo5 (actoMyo5)

[4] = biological target: T1, unphosphorylated Myo5 (actoMyo5); assay: biochemical
Description: stopped-flow light scattering, ATP-induced dissociation of actoMyo5, hyperbolic fit on unphosphorylated Myo5 (actoMyo5)

Compound	ADP release rate constant [1]	ADP dissociation rate constant [2]	Phosphorylated Myo5 [3]	Kd [4]
Nc1ncnc2c1ncn2[C@@H]1O[C@H](COP(=O)(O)OP(=O)(O)O)[C@@H](O)[C@H]1O [ADP]	107 (±5.9) s^−1	74 ± 2.0 s⁻¹		
Nc1ncnc2c1ncn2[C@@H]1O[C@H](COP(=O)(O)OP(=O)(O)OP(=O)(O)O)[C@@H](O)[C@H]1O [ATP]			0.39 (±0.017) µM^−1 s^−1	167 µM

From publication PMC10406613, “Endocytic myosin-1 is a force-insensitive, power-generating motor” (The Journal of Cell Biology, 2023)
